One experiment addresses T1, CCKB receptor (Mus musculus, UniProt P56481).
T1 construct: The whole brains from male mice (CD1 22-25 g; Charles River) were removed; from tissue; host or cells: cerebral cortex membranes of male CD1 mice
T1 sequence (P56481 1-453): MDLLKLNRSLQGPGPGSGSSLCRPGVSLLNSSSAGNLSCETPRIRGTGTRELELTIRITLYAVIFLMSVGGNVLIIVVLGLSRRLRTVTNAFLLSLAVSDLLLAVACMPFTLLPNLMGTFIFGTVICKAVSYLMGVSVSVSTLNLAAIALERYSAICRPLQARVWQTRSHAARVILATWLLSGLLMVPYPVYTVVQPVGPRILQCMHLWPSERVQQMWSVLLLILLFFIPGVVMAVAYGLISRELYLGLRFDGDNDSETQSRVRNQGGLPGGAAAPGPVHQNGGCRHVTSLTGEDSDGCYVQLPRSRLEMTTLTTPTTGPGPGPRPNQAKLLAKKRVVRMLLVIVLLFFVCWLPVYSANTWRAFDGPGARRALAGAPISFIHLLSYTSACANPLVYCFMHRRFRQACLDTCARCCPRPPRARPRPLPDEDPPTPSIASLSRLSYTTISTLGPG
The experiment can be described thus: CCKB receptor radioligand binding assay in mouse cortical membranes. The note with it: [125I]-CCK8(S) 200 pM, 150 min at 21±3°, read-out: CCKB pKi (converted). The gist of the method:
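Bound radioactivity was gamma-counted after rapid GF/B filtration and cold 50 mM Tris-HCl (pH 7.4) washes. The tissue was cerebral cortex from male CD1 mice, prepared as twice-centrifuged membranes in pH 7.2 HEPES/NaCl/KCl/MgCl2/EDTA buffer with bacitracin at 20 mg/ml original wet weight.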

Another experiment concerns the target T2, gastrin receptor (Rattus norvegicus, UniProt P30553).
T2 construct: The stomach was excised and flushed with ca. 1 ml of unbuffered physiological saline solution; from tissue; host or cells: isolated whole stomach of immature rats (ca. 21 days old)
T2 sequence (P30553 1-452): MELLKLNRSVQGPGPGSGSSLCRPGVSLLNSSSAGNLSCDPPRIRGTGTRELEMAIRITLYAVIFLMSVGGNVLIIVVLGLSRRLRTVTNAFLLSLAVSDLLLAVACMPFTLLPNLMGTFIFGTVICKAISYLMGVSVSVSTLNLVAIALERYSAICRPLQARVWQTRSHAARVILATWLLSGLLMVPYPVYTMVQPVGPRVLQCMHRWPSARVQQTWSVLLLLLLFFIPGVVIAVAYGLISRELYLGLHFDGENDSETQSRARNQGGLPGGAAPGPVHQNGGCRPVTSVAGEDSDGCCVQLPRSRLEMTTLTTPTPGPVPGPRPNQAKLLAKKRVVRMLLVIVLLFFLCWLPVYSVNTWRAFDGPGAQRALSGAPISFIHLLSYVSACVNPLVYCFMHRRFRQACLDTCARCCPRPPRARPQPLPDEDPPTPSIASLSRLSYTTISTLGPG
As to the kind of experiment: gastrin antagonist activity in immature rat stomach assay (pentagastrin dose-response, acid secretion). The following applies: isolated immature rat stomach, cumulative pentagastrin dose-response curves, read-out: Gastrin pKb (converted). In short, it runs like this: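 Isolated, lumen-perfused stomach from immature rats (33-50 g, ca. 21 days) in a 37° organ bath with 3×10^−8 M 5-methylfurmethide, gassed 95% O2/5% CO2. Compound added serosally after 120 min stabilisation; cumulative pentagastrin dose-response curves begun 60 min later, acid secretion followed by perfusate pH.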

`Cc1ccc(NC(=O)c2nc(-c3ccccn3)[nH]c2CCC23CC4CC(CC(C4)C2)C3)cc1C(=O)O` [Example 179, 5-{[5-(2-Adamantan-1-yl-ethyl)-2-pyridine-2-yl-1H-imidazole-4-carbonyl]-amino}-2methyl-benzoic Acid]: the Ki at CCKB receptor is 40.7 nM. For the same molecule, the Kb at gastrin receptor was 46.8 nM.

Turning to `CCCCC(CC)c1nc(C(=O)Nc2cccc(C(=O)O)c2)c(CCC23CC4CC(CC(C4)C2)C3)[nH]1` (stereo not drawn) [Example 124, 3-{[5-(2-Adamantan-1-yl-ethyl)-2-(1-ethyl-pentyl)-1H-imidazole-4-carbonyl]-amino}-benzoic Acid], the Ki at CCKB receptor is 63.1 nM. The Kb at gastrin receptor was 15.5 nM.

On to `Cc1ccc(C(=O)O)cc1NC(=O)c1nc(C2CCCCC2)[nH]c1CCC12CC3CC(CC(C3)C1)C2` [Example 252, 3-{[5-(2-Adamantan-1-yl-ethyl)-2-cyclohexyl-1H-imidazole-4-carbonyl]-amino}-4-methylbenzoic Acid], for which, on CCKB receptor, the Ki was 170 nM. Further, the Kb on gastrin receptor is 263 nM.

`Cc1cccc(C)c1-c1nc(C(=O)Nc2cccc(C(=O)O)c2)c(CCC23CC4CC(CC(C4)C2)C3)[nH]1` [Example 65, 3-{[5-(2-Adamantan-1-yl-ethyl)-2-(2,6-dimethyl-phenyl)-1H-imidazole-4-carbonyl]-amino}-benzoic Acid]: at CCKB receptor, the Ki is 56.2 nM. In addition, on gastrin receptor, the Kb is 100 nM.

`O=C(O)c1cccc(NC(=O)c2nc(CC3CCCCC3)[nH]c2CCC23CC4CC(CC(C4)C2)C3)c1` [Example 193, 3-{[5-(2-Adamantan-1-yl-ethyl)-2-cyclohexylmethyl-1H-imidazole-4-carbonyl]-amino}-benzoic Acid]: the Ki on CCKB receptor is 57.5 nM. The Kb on gastrin receptor was 20.4 nM.

For the molecule `O=C(O)c1cccc(NC(=O)c2nc(-c3ccc(F)cc3)[nH]c2CCC23CC4CC(CC(C4)C2)C3)c1` [Example 54, 3-{[5-(2-Adamantan-1-yl-ethyl)-2-(4-fluoro-phenyl)-1H-imidazole-4-carbonyl]-amino}-benzoic Acid], the Ki at CCKB receptor was 309 nM. Also, the Kb on gastrin receptor is 813 nM.

`Cc1c(NC(=O)c2nc(C3CCCCC3)[nH]c2CCC23CC4CC(CC(C4)C2)C3)cccc1C(=O)O` [Example 253, 3-{[5-(2-Adamantan-1-yl-ethyl)-2-cyclohexyl-1H-imidazole-4-carbonyl]-amino}-2-methyl-benzoic Acid]: the Ki on CCKB receptor was 55 nM. Moreover, at gastrin receptor, the Kb is 64.6 nM.

As for `Cc1ccc(C)c(-c2nc(C(=O)Nc3cccc(C(=O)O)c3)c(CCC34CC5CC(CC(C5)C3)C4)[nH]2)c1` [Example 66, 3-{[5-(2-Adamantan-1-yl-ethyl)-2-(2,5-dimethyl-phenyl)-1H-imidazole-4-carbonyl]-amino}-benzoic Acid], the Ki on CCKB receptor is 200 nM. Moreover, the Kb at gastrin receptor is 55 nM.

`Cc1ccccc1-c1nc(CCC23CC4CC(CC(C4)C2)C3)c(C(=O)Nc2cccc(C(=O)O)c2)n1C` [Example 74, 3-{[5-(2-Adamantan-1-yl-ethyl)-3-methyl-2-o-tolyl-3H-imidazole-4-carbonyl]-amino}-benzoic Acid]: the Ki at CCKB receptor is 324 nM. Besides, the Kb at gastrin receptor is 25.7 nM.

As for `CCC(CC)c1nc(C(=O)Nc2ccc(C)c(C(=O)O)c2)c(CCC23CC4CC(CC(C4)C2)C3)[nH]1` [Example 113, 5{-[5-(2-Adamantan-1-yl-ethyl)-2-(1-ethyl-propyl)-1H-imidazole-4-carbonyl]-amino}-2-methyl-benzoic Acid], the Ki on CCKB receptor is 7.24 nM. The Kb on gastrin receptor was 5.5 nM.

`Cc1ccc(-c2nc(C(=O)Nc3cccc(C(=O)O)c3)c(CCC34CC5CC(CC(C5)C3)C4)[nH]2)c(C)c1` [Example 67, 3-{[5-(2-Adamantan-1-yl-ethyl)-2-(2,4-dimethyl-phenyl)-1H-imidazole-4-carbonyl]-amino}-benzoic Acid]: the Ki on CCKB receptor is 83.2 nM. For the same molecule, the Kb on gastrin receptor is 10 nM.

Turning to `O=C(O)c1cc(NC(=O)c2cc(-c3ccccc3)[nH]c2CC23CC4CC(CC(C4)C2)C3)cc(C(=O)O)c1` [Example 1, 5-[(2-Adamantan-1-ylmethyl-5-phenyl-1H-pyrrole-3-carbonyl)-amino]-isophthalic Acid], at CCKB receptor, the Ki is 191 nM. Also, on gastrin receptor, the Kb is 468 nM.

For the origin of these results see patent publication US6479531B1, “Gastrin and cholecystokinin receptor ligands” (James Black Foundation Limited, priority 1998, dated 2002).
